This note sets out measurements from paper PMC6264296, “1,3-Substituted Imidazolidine-2,4,5-triones: Synthesis and Inhibition of Cholinergic Enzymes” (Molecules, 2011).

Like-named read-outs stand apart in the source and are kept apart here.

For data set [1], the target named is T1, butyrylcholinesterase from equine serum (Equus caballus, UniProt P81908).
T1 construct: butyrylcholinesterase isolated from equine serum; purchased Sigma; host or cells: equine serum
Kind of data set: biochemical. How it is done:
(§1) The ability of all tested compounds to inhibit acetylcholinesterase from electric eel (Electrophorus electricus L.) and butyrylcholinesterase from equine serum (both purchased from Sigma) was tested. […] The IC50 values were determined by the spectrophotometric Ellman’s method.
(§2) The Ellman’s method is a simple, rapid and direct method to determine the SH and –S–S– group content in proteins. This method is widely used for measuring of cholinesterase activity and effectivity of cholinesterase inhibitors. Cholinesterase activity is measured indirectly by quantifying the concentration of 5-thio-2-nitrobenzoic acid (TNB) ion formed in the reaction between the thiol reagent 5,5′-dithiobis-2-nitrobenzoic acid (DTNB) and thiocholine, a product of substrate (i.e., acetylthiocholine, ATCh) hydrolysis by the cholinesterase. All tested compounds were dissolved in dioxane (concentration 0.01 M) and then diluted in demineralized water (concentration 0.001 M and 0.0001 M). The procedure of determination of IC50 is in detail described in [49]. For determination of IC50 values the inhibition was determined at 12 different compound concentrations with three replicates.

The target in data set [2] is T2, acetylcholinesterase from electric eel (Electrophorus electricus, UniProt O42275).
T2 construct: purchased Sigma
T2 sequence (O42275 24-633): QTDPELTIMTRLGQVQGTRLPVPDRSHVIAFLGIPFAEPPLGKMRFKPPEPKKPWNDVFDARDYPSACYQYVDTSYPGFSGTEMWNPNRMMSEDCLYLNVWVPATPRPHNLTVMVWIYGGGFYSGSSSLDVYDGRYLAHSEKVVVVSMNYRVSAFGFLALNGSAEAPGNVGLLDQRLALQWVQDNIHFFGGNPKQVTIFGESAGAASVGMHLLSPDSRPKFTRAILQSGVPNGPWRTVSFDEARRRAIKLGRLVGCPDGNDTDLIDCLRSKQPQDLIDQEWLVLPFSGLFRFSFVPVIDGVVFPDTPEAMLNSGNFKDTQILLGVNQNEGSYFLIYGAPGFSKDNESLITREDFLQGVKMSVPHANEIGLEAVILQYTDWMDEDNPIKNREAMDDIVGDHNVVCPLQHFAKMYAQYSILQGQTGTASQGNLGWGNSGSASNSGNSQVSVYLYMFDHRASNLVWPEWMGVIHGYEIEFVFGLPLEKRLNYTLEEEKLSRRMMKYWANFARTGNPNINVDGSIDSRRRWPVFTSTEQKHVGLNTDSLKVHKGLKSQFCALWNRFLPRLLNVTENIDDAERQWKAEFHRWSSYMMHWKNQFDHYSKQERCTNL
Kind of data set: biochemical. Here is the method: as §1, §2

Data set [3] in a line: Partition coefficient log Kow (n-octanol/water), shake-flask method. Particulars: mean ± SD (n = 3 experiments). Type of data set: physicochemical. Here is the method: Before the partition coefficient is determined, the two solvents are mutually saturated at the temperature of the experiment. To do this, it is practical to shake two large stock bottles, one containing n-octanol and a sufficient quantity of water, and the other containing water and a sufficient quantity of n-octanol, for 24 hours on a mechanical shaker and then to let them stand long enough to allow the phases to separate.
The procedure of determination was the following: n-Octanol (2 mL) was placed in a test tube. Then an octanol solution of the chosen inhibitor (15 μL, 0.01 M) was added. Mixture was intensively shaken for 15 min. This mixture (1 mL) was placed into the cell, and its absorbance at the absorption maximum wavelength was measured. The reference solution was n-octanol. The value of absorbance corresponding to 100% of the chosen inhibitor in n-octanol was obtained. An n-octanol solution of the chosen inhibitor (0.01 M, 15 μL) was added into the mixture of n-octanol and water (1:1, total volume 4 mL). The mixture was intensively shaken for 15 min and then centrifuged (3,000 rpm, 10 min). One mL of the n-octanol layer was put into the cell, and its absorbance at the wavelength of absorption maximum was measured. The comparative solution was n-octanol again. The percentage content of chosen inhibitor in the octanol layer (%) was obtained. The n-octanol/water partition coefficient is defined as Pow = c1/c2, where c1 and c2 are molar concentrations of tested compounds in n-octanol and water. For each compound, at least three determinations were performed.

The mark [4] stands for this setting: equine serum BChE, Ellman's method, mean ± SD (n = 3 experiments), read-out: BChE IC50.
[5] abbreviates: electric eel AChE, Ellman's method, mean ± SD (n = 3 experiments), read-out: AChE IC50.

T1 sequence (P81908 whole entry): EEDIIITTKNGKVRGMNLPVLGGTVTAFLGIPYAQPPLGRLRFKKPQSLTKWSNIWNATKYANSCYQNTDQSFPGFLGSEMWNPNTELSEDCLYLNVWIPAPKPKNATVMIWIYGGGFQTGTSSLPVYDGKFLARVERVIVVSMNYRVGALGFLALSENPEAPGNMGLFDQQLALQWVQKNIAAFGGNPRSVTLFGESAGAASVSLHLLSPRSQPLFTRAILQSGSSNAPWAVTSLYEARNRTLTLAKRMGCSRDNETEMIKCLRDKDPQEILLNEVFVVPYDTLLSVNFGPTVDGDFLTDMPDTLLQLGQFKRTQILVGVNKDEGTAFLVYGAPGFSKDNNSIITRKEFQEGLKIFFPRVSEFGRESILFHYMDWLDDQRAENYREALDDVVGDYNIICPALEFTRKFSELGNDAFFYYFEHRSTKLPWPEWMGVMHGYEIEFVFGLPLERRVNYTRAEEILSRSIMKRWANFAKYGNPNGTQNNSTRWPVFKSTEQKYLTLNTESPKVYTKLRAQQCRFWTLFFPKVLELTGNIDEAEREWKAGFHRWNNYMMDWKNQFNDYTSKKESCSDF

For the compound `C[C@H](c1nc2ccc(F)cc2s1)N1C(=O)C(=O)N(c2cccc(C(F)(F)F)c2)C1=O` [Compound 3b, 1-(3-Trifluoromethylphenyl)-3-[(1R)-1-(6-fluoro-1,3-benzothiazol-2-yl)ethyl]imidazolidine-2,4,5-trione], the IC50 – broadly, the concentration at which inhibition is half-maximal – worked out at 17.4 ± 0.37 µM in data set [1] (setting [4]) and 23.4 ± 0.28 µM in data set [2] (setting [5]). The “log Kow” value in data set [3] is listed as 1.12 ± 0.15.
In the case of `COc1ccc(N2C(=O)C(=O)N([C@H](C)c3nc4ccc(F)cc4s3)C2=O)cc1` [Compound 3c, 1-(4-Methoxyphenyl)-3-[(1R)-1-(6-fluoro-1,3-benzothiazol-2-yl)ethyl]imidazolidine-2,4,5-trione], the IC50 in data set [1] (setting [4]) is 13.2 ± 0.22 µM; in data set [2] (setting [5]), 22.4 ± 0.21 µM. For the same compound, in data set [3], the “log Kow” value was found to be 0.69 ± 0.02.
With `C[C@H](c1nc2ccc(F)cc2s1)N1C(=O)C(=O)N(c2ccc(C#N)cc2)C1=O` [Compound 3f, 1-(4-Cyanophenyl)-3-[(1R)-1-(6-fluoro-1,3-benzothiazol-2-yl)ethyl]imidazolidine-2,4,5-trione], the IC50 came out at 10.5 ± 0.18 µM in data set [1] (setting [4]) and 19.1 ± 0.27 µM in data set [2] (setting [5]). Also, the “log Kow” value in data set [3] is on record as 0.41 ± 0.02; in data set [3] (listed as 4f), “lowest lipophilicity”.
Take `C[C@H](c1nc2ccc(F)cc2s1)N1C(=O)C(=O)N(c2ccc(Cl)cc2)C1=O` [Compound 3e, 1-(4-Chlorophenyl)-3-[(1R)-1-(6-fluoro-1,3-benzothiazol-2-yl)ethyl]imidazolidine-2,4,5-trione]: the IC50 in data set [1] was 25.7 ± 0.29 µM; in data set [2], 13.8 ± 0.13 µM.
In the case of `C[C@H](c1nc2ccc(F)cc2s1)N1C(=O)C(=O)N(c2ccccc2)C1=O` [Compound 3a, 1-[(1R)-1-(6-Fluoro-1,3-benzothiazol-2-yl)ethyl]-3-phenylimidazolidine-2,4,5-trione], the IC50 in data set [1] (setting [4]) is 14.5 ± 0.21 µM; in data set [2] (setting [5]) it was 21.4 ± 0.19 µM.
Consider `C[C@H](c1nc2ccc(F)cc2s1)N1C(=O)C(=O)N(c2cc(Cl)cc(Cl)c2)C1=O` [Compound 3j, 1-(3,5-Dichlorophenyl)-3-[(1R)-1-(6-fluoro-1,3-benzothiazol-2-yl)ethyl]imidazolidine-2,4,5-trione], for which the IC50 came out at 29.5 ± 0.39 µM in data set [1] and 17 ± 0.38 µM in data set [2]. Also, in data set [3], the “log Kow” value is recorded as 0.77 ± 0.03.
For the compound `CC(C)c1ccc(N2C(=O)C(=O)N([C@H](C)c3nc4ccc(F)cc4s3)C2=O)cc1` [Compound 3d, 1-(4-Isopropylphenyl)-3-[(1R)-1-(6-fluoro-1,3-benzothiazol-2-yl)ethyl]imidazolidine-2,4,5-trione], the IC50 came to 1.66 ± 0.14 µM in data set [1] (setting [4]) and 16.6 ± 0.29 µM in data set [2] (setting [5]).
`CC(C)c1cccc(C(C)C)c1N1C(=O)C(=O)N([C@H](C)c2nc3ccc(F)cc3s2)C1=O` [Compound 3g, 1-(2,6-Diisopropylphenyl)-3-[(1R)-1-(6-fluoro-1,3-benzothiazol-2-yl)ethyl]imidazolidine-2,4,5-trione]: the results for the IC50 in data set [1] (setting [4]) and in data set [2] (setting [5]) were 30.2 ± 0.45 µM and 15.1 ± 0.29 µM, respectively. The “log Kow” value in data set [3] worked out at 0.98 ± 0.08.
Turning to `C[C@H](c1nc2ccc(F)cc2s1)N1C(=O)C(=O)N(Cc2ccccc2)C1=O` [Compound 3k, 1-Benzyl-3-[(1R)-1-(6-fluoro-1,3-benzothiazol-2-yl)ethyl]imidazolidine-2,4,5-trione], the IC50 in data set [1] (setting [4]) worked out at 12.6 ± 0.11 µM; in data set [2] (setting [5]) it was 18.6 ± 0.16 µM. Further, the “log Kow” value in data set [3] is reported as 1.06 ± 0.09.
Consider `Cc1ccc(N2C(=O)C(=O)N([C@H](C)c3nc4ccc(F)cc4s3)C2=O)cc1Cl` [Compound 3h, 1-(3-Chloro-4-methylphenyl)-3-[(1R)-1-(6-fluoro-1,3-benzothiazol-2-yl)ethyl]imidazolidine-2,4,5-trione], for which the results for the IC50 in data set [1] and in data set [2] were 17 ± 0.1 µM and 15.5 ± 0.2 µM, respectively. Besides, the “log Kow” value in data set [3] is given as 0.50 ± 0.02.
